Assay results from ChEMBL document CHEMBL1130169, “Validation of EGSITE2, a mixed integer program for deducing objective site models for experimental binding data” (J Med Chem, 1997).

Biological target: T1, Sex hormone-binding globulin (Homo sapiens) (UniProt P04278)
T1 sequence (whole entry): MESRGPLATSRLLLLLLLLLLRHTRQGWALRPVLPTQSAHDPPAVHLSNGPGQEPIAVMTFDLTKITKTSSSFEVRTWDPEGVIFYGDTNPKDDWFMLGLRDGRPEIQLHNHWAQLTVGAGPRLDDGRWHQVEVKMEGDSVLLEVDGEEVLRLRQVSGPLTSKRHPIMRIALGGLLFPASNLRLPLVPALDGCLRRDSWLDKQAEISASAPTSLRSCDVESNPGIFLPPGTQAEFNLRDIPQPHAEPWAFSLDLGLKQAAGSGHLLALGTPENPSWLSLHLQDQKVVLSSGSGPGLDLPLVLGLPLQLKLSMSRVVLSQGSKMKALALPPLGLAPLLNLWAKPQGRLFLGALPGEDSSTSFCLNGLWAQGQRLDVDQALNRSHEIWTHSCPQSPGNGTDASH
Description: Binding affinity towards human testosterone binding globulin.

Row | Structure (SMILES) | -Log Kdiss
1 | C[C@]12CC[C@@H]3c4ccc(O)cc4CCC3[C@@H]1CCC2=O (single isomer, unassigned) | 7.18
2 | C[C@]12CCC(=O)C=C1CC[C@@H]1[C@@H]2[C@@H](O)C[C@@]2(C)[C@H]1CC[C@]2(O)C(=O)CO | 5.2
3 | C[C@]12CCC(=O)C=C1CCC1C3CC[C@H](C(=O)CO)[C@@]34C[C@H](OC4O)C12 (some centres undefined) | 4.32
4 | C[C@]12CC[C@H](O)CC1=CCC1C2CC[C@]2(C)C(=O)CCC12 (some centres undefined) | 6.82
5 | C[C@]12CCC(=O)C[C@@H]1CC[C@@H]1[C@@H]2CC[C@]2(C)[C@@H](O)CC[C@@H]12 | 8.74
6 | C[C@]12CCC3C(CC[C@@H]4CC(O)=CC[C@]34C)C1CCC2=O (some centres undefined) | 5.15
7 | C[C@]12C[C@H](O)[C@H]3[C@@H](CCC4=CC(=O)CC[C@@]43C)[C@@H]1CC[C@@H]2C(=O)CO | 5.34
8 | C[C@]12CC[C@H]3[C@@H](CCC4=CC(=O)CC[C@@]43C)[C@@H]1CC[C@@H]2O | 8.2
9 | CC(=O)[C@@]1(O)CC[C@H]2[C@@H]3CCC4=CC(=O)CC[C@]4(C)[C@H]3CC[C@@]21C | 6
10 | C[C@]12CC[C@@H]3c4ccc(O)cc4CC[C@H]3[C@@H]1C[C@@H](O)[C@@H]2O | 5.63
11 | C[C@]12CC[C@H]3[C@@H](CCC4=CC(=O)CC[C@@]43C)[C@@H]1CC[C@@H]2C(=O)CO | 6.38
12 | C[C@]12CC[C@H](O)C[C@@H]1CC[C@@H]1[C@@H]2CC[C@]2(C)[C@@H](O)CC[C@@H]12 | 8.11
13 | CC(=O)[C@H]1CC[C@H]2[C@@H]3CCC4=CC(=O)CC[C@]4(C)[C@H]3CC[C@]12C | 5.94
14 | C[C@]12CC[C@@H](O)C[C@@H]1CC[C@@H]1[C@@H]2CC[C@]2(C)C(=O)CC[C@@H]12 | 6.15
15 | C[C@]12CCC(=O)C=C1CC[C@@H]1[C@@H]2CC[C@@]2(C)[C@H]1CC[C@]2(O)C(=O)CO | 6.2
16 | CC(=O)[C@H]1CC[C@H]2[C@@H]3CC=C4C[C@@H](O)CC[C@]4(C)[C@H]3CC[C@]12C | 6.15
17 | CC(=O)[C@@]1(O)CC[C@H]2[C@@H]3CC=C4C[C@@H](O)CC[C@]4(C)[C@H]3CC[C@@]21C | 5.36
18 | C[C@]12CCC(=O)C=C1CC[C@@H]1[C@@H]2C(=O)C[C@@]2(C)[C@H]1CC[C@]2(O)C(=O)CO | 5.43
19 | C[C@]12CCC(=O)C=C1CC[C@@H]1[C@@H]2CC[C@]2(C)C(=O)CC[C@@H]12 | 6.46
